Test: xn = mol fraction of the nth substance listed
Details: 311 K, Fluid (supercritical or subcritical phases), Pulse-echo method

CCCC [butane] + C
Details	speed of sound [m/s]
2068 kPa, x2 = 0.894	381.6
2758 kPa, x2 = 0.894	378.5
3447 kPa, x2 = 0.894	375.5
3930 kPa, x2 = 0.158	760.1
3999 kPa, x2 = 0.158	760.7
4137 kPa, x2 = 0.158	762.3
4137 kPa, x2 = 0.894	372.7
4826 kPa, x2 = 0.158	778.7
4826 kPa, x2 = 0.894	370.1
5516 kPa, x2 = 0.158	793.5
5516 kPa, x2 = 0.894	368
6205 kPa, x2 = 0.158	805.6
6205 kPa, x2 = 0.894	366.4
6895 kPa, x2 = 0.158	817.6
6895 kPa, x2 = 0.894	365.2
7584 kPa, x2 = 0.894	364.8
8274 kPa, x2 = 0.894	365.1
8963 kPa, x2 = 0.894	366
9653 kPa, x2 = 0.894	367.8
10342 kPa, x2 = 0.158	866
10342 kPa, x2 = 0.894	370.3
11032 kPa, x2 = 0.894	373.7
11721 kPa, x2 = 0.894	378
12411 kPa, x2 = 0.894	383.1
13100 kPa, x2 = 0.894	388.9
13128 kPa, x2 = 0.724	314.6
13148 kPa, x2 = 0.724	316.5
13231 kPa, x2 = 0.724	323.7
13307 kPa, x2 = 0.724	329.7
13472 kPa, x2 = 0.724	344
13790 kPa, x2 = 0.158	906.3
13790 kPa, x2 = 0.894	395.6
13845 kPa, x2 = 0.724	366.1
14479 kPa, x2 = 0.724	395.6
14479 kPa, x2 = 0.894	402.9
15168 kPa, x2 = 0.724	420.7
15168 kPa, x2 = 0.894	410.8
15858 kPa, x2 = 0.724	443.6
15858 kPa, x2 = 0.894	419.4
16547 kPa, x2 = 0.724	464.8
16547 kPa, x2 = 0.894	428.4
17237 kPa, x2 = 0.724	484.4
17237 kPa, x2 = 0.894	438
